Data on one molecule can be found in patent US20090076172A1, “Prolonged Deactivation” (priority 2004, published 2009).

The structures appear in SMILES notation.

In the assay the target is T1, Der p1 allergen (Dermatophagoides pteronyssinus, UniProt P08176).
T1 construct: House dust was passed through a number of sieves and the fraction smaller than 53 μm was collected; from tissue; host or cells: house dust (sieved fraction smaller than 53 μm)
The assay can be described thus: Der p1 allergen reduction in house dust after vapour exposure in a booth (ELISA). The conditions noted are these: 0.8 ml β-pinene on 6 ml water vaporised by oil burner, house dust on PTFE tray, vs pre-treatment control. The text has this: When using house dust for allergen denaturing tests an inherent difficulty is the variability of the amount of allergen in each small sample, even when taken from the same dust reservoir. The amount of dust in the pre-treatment sample must be accurately estimated in order to determine the extent of any allergen denaturing. In these tests the dust sample was applied to the test exposure surface and then one half of this surface dust was removed to measure the control pre-treatment allergen level of that specific sample. Each control was directly relevant to each sample, which gave the best possible estimate of the level of allergen in the sample before exposure to possible denaturant. All tests employed a glass reinforced plastic booth of size 0.7 m×0.7 m×1.0 m. All tests had 5 or 6 replicates. Average values are stated.
The following Examples all measure the reduction of the house dust mite Dermatophagoides pteronyssinus allergen—Der p1.
House dust was passed through a number of sieves and the fraction smaller than 53 μm was collected. 0.025 g of dust was placed in a small sieve to distribute it evenly over the test surface. The test surface was a PTFE (polytetrafluoroethylene—trade mark TEFLON) coated metal tray of size 30 cm×30 cm. The dust was applied to the tray by moving the sieve continuously over the surface while tapping the sieve. One half of the dust was then removed by suction onto an in-line filter and the weight recorded, this was the pre-treatment control. The tray was then placed in the booth. An oil burner containing 0.8 ml of β-pinene floated on 6ml of distilled water was placed in the booth, and the booth was sealed. The oil burner candle was lit and allowed to burn, under the oil/water until all the liquid had been vaporised (approximately 30 minutes). The candle was then smothered. After 24 hours the tray was removed, the dust was collected from it and its weight recorded. The booth was washed with strong detergent between tests.
The test samples were assayed for the Der p1 allergen using an ELISA (enzyme linked immunosorbent assay) to determine the allergen content. This was then related to the weight of dust that had been present in each sample. All of the samples were multiplied up to compare the amount of allergen expected to be present in a 0.1 g sample of dust. The percentage difference between the control sample and the exposed sample was then obtained. One analysis was carried out on week 0 (24 hours after the tests were completed. Another analysis was carried out after 2 weeks.
Corresponding tests were carried out and the same ELISA analysis carried out at Week 0 and after 4 weeks.
On the technique in general: ELISA stands for enzyme-linked immunosorbent assay.

T1 sequence (P08176 99-320): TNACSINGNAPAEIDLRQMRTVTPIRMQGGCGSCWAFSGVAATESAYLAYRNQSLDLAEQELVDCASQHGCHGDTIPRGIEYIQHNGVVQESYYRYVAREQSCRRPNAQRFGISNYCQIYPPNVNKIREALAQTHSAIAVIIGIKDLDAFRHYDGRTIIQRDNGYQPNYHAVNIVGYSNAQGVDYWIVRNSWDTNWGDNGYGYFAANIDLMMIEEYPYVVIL

In the case of `C=C1CCC2CC1C2(C)C` (stereo not drawn) [β-pinene], the “Der p1 allergen reduction” value is, setting by setting: (corresponding (second) test series, Week 0) “Week 0-77.5%”; (corresponding (second) test series, Week 4 (analysis after 4 weeks)) “Week 4-91.6%”; (first test series, Week 0 (24 hours after the tests were completed)) “Week 0-68.0%”; (first test series, Week 2 (analysis after 2 weeks)) “Week 2-66.3%”.
